Columns and labels:
human TLR9 = molecular target: T1, human TLR9 (Homo sapiens, UniProt Q9NR96); experiment: TLR9 inhibition reporter assay (HEK-Blue cells, SEAP reporter, ODN2006 stimulation); type: cell-based; conditions: HEK-Blue cells overexpressing human TLR9, ODN2006 5 nM
T1 construct: host or cells: HEK-Blue cells
T1 sequence (Q9NR96 26-1032): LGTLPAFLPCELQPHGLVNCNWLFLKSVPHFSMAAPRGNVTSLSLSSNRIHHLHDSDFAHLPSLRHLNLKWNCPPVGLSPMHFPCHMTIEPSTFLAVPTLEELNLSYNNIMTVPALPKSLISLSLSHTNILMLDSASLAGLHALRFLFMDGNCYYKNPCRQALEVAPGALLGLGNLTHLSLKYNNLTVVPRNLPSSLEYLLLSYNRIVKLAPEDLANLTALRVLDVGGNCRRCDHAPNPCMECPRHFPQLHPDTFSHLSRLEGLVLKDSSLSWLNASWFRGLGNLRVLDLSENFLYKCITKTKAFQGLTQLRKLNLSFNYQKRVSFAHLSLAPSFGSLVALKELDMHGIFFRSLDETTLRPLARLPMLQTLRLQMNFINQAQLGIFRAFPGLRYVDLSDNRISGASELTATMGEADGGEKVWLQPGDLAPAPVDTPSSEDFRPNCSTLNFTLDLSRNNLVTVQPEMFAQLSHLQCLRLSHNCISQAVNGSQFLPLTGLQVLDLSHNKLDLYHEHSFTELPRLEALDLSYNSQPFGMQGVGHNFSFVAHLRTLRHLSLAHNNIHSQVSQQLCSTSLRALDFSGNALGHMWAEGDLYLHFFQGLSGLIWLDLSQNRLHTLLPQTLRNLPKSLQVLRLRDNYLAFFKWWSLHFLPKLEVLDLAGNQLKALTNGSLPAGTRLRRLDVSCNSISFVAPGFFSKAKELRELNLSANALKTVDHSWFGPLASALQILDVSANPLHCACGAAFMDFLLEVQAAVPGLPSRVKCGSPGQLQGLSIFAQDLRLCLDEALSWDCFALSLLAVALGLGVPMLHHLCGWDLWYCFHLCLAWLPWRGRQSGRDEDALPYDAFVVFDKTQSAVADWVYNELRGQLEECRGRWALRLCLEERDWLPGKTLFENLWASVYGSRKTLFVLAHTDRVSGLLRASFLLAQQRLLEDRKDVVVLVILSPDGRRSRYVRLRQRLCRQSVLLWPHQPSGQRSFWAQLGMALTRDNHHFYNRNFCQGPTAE
In short: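 Human TLR7/8/9 HEK-Blue reporter lines; dose range 0.05 nM–50 μM; 30 min RT preincubation; stimulus gardiquimod 7.5 μM / R848 15.9 μM / ODN2006 5 nM respectively; 22 h, 37 °C; SEAP detected colorimetrically.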

human TLR8 = molecular target: T2, human TLR8 (Homo sapiens, UniProt Q9NR97); experiment: TLR8 inhibition reporter assay (HEK-Blue cells, SEAP reporter, R848 stimulation); type: cell-based; conditions: HEK-Blue cells overexpressing human TLR8, R848 15.9 μM
T2 construct: host or cells: HEK-Blue cells
T2 sequence (Q9NR97 27-1041): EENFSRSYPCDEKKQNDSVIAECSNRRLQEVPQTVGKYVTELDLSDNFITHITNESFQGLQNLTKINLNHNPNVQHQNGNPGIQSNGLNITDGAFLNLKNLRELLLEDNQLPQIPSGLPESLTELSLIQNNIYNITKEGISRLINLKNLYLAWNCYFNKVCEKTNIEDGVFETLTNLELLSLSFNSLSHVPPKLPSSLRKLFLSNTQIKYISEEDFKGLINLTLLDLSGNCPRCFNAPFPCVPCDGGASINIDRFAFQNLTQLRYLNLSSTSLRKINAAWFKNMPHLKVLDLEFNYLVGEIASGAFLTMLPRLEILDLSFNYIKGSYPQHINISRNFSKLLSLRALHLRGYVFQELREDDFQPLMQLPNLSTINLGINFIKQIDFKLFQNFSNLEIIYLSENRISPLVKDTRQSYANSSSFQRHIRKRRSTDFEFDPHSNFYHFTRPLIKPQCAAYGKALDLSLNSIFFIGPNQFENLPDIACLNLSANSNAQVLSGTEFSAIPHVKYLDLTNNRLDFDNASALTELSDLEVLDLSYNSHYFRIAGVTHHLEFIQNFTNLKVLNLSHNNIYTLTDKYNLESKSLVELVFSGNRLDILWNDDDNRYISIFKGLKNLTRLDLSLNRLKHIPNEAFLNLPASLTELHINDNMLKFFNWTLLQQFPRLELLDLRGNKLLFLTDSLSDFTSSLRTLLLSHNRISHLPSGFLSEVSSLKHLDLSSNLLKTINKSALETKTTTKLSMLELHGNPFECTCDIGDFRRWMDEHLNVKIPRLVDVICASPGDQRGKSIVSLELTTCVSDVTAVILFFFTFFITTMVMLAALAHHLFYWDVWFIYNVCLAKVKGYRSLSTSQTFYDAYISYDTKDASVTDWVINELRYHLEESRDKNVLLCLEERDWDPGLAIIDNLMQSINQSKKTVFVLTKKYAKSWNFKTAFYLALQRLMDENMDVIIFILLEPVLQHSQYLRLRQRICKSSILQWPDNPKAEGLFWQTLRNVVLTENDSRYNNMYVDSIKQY
Experimental: TLR7/8/9 Inhibition Reporter Assays
Briefly, cells are seeded into Greiner 384 well plates (15000 cells per well for TLR7, 20,000 for TLR8 and 25,000 for TLR9) and then treated with test compounds in DMSO to yield a final dose response concentration range of 0.05 nM-50 μM. […] After a 22 hour incubation at 37° C., 5% CO2, SEAP levels are determined with the addition of HEK-Blue™ Detection reagent (Invivogen), a cell culture medium that allows for detection of SEAP, according to manufacturer's specifications. The percent inhibition is determined as the % reduction in the HEK-Blue signal present in wells treated with agonist plus DMSO alone compared to wells treated with a known inhibitor.

human TLR7 = molecular target: T3, human TLR7 (Homo sapiens, UniProt Q9NYK1); experiment: TLR7 inhibition reporter assay (HEK-Blue cells, SEAP reporter, gardiquimod stimulation); type: cell-based; conditions: HEK-Blue cells overexpressing human TLR7, gardiquimod 7.5 μM
T3 construct: host or cells: HEK-Blue cells
T3 sequence (Q9NYK1 27-1049): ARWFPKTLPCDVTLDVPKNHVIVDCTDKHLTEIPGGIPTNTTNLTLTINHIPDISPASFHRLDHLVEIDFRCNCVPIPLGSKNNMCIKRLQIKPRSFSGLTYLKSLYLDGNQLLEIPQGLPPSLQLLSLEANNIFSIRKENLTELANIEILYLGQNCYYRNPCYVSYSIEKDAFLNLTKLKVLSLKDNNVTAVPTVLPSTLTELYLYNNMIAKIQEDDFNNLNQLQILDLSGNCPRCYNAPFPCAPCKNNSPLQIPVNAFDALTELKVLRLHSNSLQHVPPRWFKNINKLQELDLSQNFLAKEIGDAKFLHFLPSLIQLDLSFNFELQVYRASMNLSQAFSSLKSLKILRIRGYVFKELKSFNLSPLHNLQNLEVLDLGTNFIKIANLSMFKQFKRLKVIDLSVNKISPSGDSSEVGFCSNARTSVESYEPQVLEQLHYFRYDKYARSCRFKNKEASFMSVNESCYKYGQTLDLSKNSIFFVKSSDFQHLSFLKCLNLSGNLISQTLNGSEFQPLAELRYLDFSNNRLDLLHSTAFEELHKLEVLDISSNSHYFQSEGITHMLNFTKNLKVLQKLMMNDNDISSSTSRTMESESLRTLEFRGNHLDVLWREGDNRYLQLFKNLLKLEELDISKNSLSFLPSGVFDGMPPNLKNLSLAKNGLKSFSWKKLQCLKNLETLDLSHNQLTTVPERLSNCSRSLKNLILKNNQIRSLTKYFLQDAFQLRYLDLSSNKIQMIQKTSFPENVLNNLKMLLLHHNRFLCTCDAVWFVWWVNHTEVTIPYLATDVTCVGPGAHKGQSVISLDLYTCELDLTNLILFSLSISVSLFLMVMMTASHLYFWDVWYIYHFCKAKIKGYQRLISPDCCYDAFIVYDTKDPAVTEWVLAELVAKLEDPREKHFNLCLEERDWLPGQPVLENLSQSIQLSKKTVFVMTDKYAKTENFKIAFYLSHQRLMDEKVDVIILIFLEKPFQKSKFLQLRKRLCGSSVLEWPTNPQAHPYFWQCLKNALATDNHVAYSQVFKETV
In short: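 Cells (15000/well for TLR7, 20,000 for TLR8) were treated with compounds over 0.05 nM-50 μM final. After 22 h at 37° C, 5% CO2, SEAP was measured with HEK-Blue Detection reagent; percent inhibition was taken as reduction of agonist-plus-DMSO signal relative to a known inhibitor.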

TLR9 = experiment: In vivo mouse TLR9 PD model (CpG-ODN challenge, plasma IL-6); conditions: oral
Experimental: In Vivo Mouse TLR7 and TLR9 PD Model:
Adult male C57BL/6 mice were used for the experiments. Mice (7 to 10 per group) were randomized into different treatment groups based on body weight. Mice from the respective treatment groups were administered orally with vehicle or test compound. Thirty min after the oral administration of vehicle or test compound, mice were challenged with intraperitoneal injection of gardiquimod for TLR7 PD model and CpG-ODN for TLR9 PD model. Ninety minutes after gardiquimod injection and 120 minutes after CpG-ODN injection, mice were bled under isoflurane anaesthesia and plasma IL-6 level was estimated by using commercially available ELISA kit (BD Biosciences). At the end of experiment, mean cytokine data was plotted and one way ANOVA with Dunnett's test was performed to calculate the significance of test compound treated group vs. vehicle control group. Percent inhibition of cytokine induction was calculated for test compound treated group vs vehicle control group.

| IC50 (human TLR9) [nM] | IC50 (human TLR8) [nM] | IC50 (human TLR7) [nM] | Compound | further results |
| --- | --- | --- | --- | --- |
| 1740 | 978 | – | COc1ccc(-c2[nH]c3ccc(C4CCN(Cc5ccncc5)CC4)cc3c2C)cc1OC [Example 20, 2-(3,4-dimethoxyphenyl)-3-methyl-5-(1-(pyridin-4-ylmethyl)piperidin-4-yl)-1H-indole] | – |
| 260 | 347 | – | CNCCN1CCC(c2ccc3[nH]c(-c4ccc(OC)c(OC)c4)c(C#N)c3c2)CC1 [Example 118, 2-(3,4-dimethoxyphenyl)-5-(1-(2-(methylamino)ethyl)piperidin-4-yl)-1H-indole-3-carbonitrile-di-trifluoroacetic acid] | – |
| 409 | 555 | – | CNCCN1CCC(c2ccc3[nH]c(-c4ccc(OC)c(OC)c4)c(Cl)c3c2)CC1 [Example 119] | – |
| – | 378 | 1140 | CCc1c(-c2ccc(OC)c(OC)c2)[nH]c2ccc(C3CCN(C4CCN(Cc5c(C)[nH]c6ccccc56)CC4)CC3)cc12 [Example 129, 2-(3,4-dimethoxyphenyl)-3-ethyl-5-(1′-((2-methyl-1H-indol-3-yl)methyl)-[1,4′-bipiperidin]-4-yl)-1H-indole] | – |
| – | 330 | 735 | CCc1c(-c2ccc(OC)c(OC)c2)[nH]c2ccc(C3CCN(C4CCN(Cc5nccn5C)CC4)CC3)cc12 [Example 136, 2-(3,4-dimethoxyphenyl)-3-ethyl-5-(1′-((1-methyl-1H-imidazol-2-yl)methyl)-[1,4′-bipiperidin]-4-yl)-1H-indole] | – |
| – | 178 | 586 | CCc1c(-c2ccc(OC)c(OC)c2)[nH]c2ccc(C3CCN(C4CCN(Cc5ccoc5)CC4)CC3)cc12 [Example 146, 2-(3,4-dimethoxyphenyl)-3-ethyl-5-(1′-(furan-3-ylmethyl)-[1,4′-bipiperidin]-4-yl)-1H-indole] | – |
| 521 | – | – | CNCCN1CCC(c2ccc3[nH]c(-c4ccc(OC)c(OC)c4)c(C(C)C)c3c2)CC1 [Example 196, 2-(4-(2-(3,4-dimethoxyphenyl)-3-isopropyl-1H-indol-5-yl)piperidin-1-yl)-N-methylethan-1-amine] | % inhibition of IL6 (TLR9; dose 1 mg/kg): 47%; % inhibition of IL6 (TLR9; dose 3 mg/kg): 75%; % inhibition of IL6 (TLR9; dose 10 mg/kg): 83%; % inhibition of IL6 (TLR9; dose 30 mg/kg): 88%; % inhibition of IL6 (TLR9; dose 100 mg/kg): 62% |
| – | 25 | – | COc1ccc(-c2[nH]c3ccc(C4CCN(Cc5[nH]cnc5C)CC4)cc3c2C(C)C)cc1OC [Example 267, 2-(3,4-dimethoxyphenyl)-3-isopropyl-5-(1-((4-methyl-1H-imidazol-5-yl)methyl)piperidin-4-yl)-1H-indole] | – |
| – | 824 | 538 | COc1ccc(-c2[nH]c3ccc(C4CCN(C(=O)COC5CCN(C)CC5)CC4)cc3c2C(C)C)cc1OC [Example 315, 1-(4-(2-(3,4-dimethoxyphenyl)-3-isopropyl-1H-indol-5-yl)piperidin-1-yl)-2-((1-methylpiperidin-4-yl)oxy)ethan-1-one] | – |

From US11180474B2 (BRISTOL-MYERS SQUIBB COMPANY, priority 2016, dated 2021)
